Reference: US12157746B2, “Tetrahydro-1H-pyrazino[2,1-a]isoindolylquinoline compounds for the treatment of autoimmune disease” (F. HOFFMANN-LA ROCHE AG, priority 2018, dated 2024)
In brackets after ≈: the same amount, converted by molar mass.

Assays:
[1] = system: Balb/c 3T3 mouse fibroblasts; experiment: 3T3 in vitro phototoxicity assay; format: cell-based; conditions: Neutral Red uptake; for Phototoxicity factor: Factor=IC50(−UV)/IC50(+UV), cut-off factor >5; for IC50: Mus musculus, BALB/c3T3, light or radiation study, with approx. 5 J/cm2 UVA light
Text: 3T3 In Vitro Phototoxicity Assay
Phototoxicity is defined as a toxic response that is elicited after the first exposure of the skin to certain chemicals and subsequent exposure to light, or that is induced similarly by skin irradiation after systemic administration of a chemical substance. The assay used in this study is designed to detect the phototoxic potential of a chemical by using a simple in vitro cytotoxicity assay with Balb/c 3T3 mouse fibroblasts. The principle of this test is a comparison of the cytotoxicity of a chemical when tested with and without exposure to a non-toxic dose of UVA-light. Cytotoxicity is expressed as a dose dependent reduction of the growth rate of cells as determined by uptake of the vital dye Neutral Red one day after treatment.
A small amount of substance was weighed and formulated freshly in DMSO just before the start of the exposure of the cells. This stock solution or appropriate dilutions with DMSO were added to the cell suspensions to obtain the required final concentrations. All solutions were generally prepared in Eppendorf caps and discarded after use.
For this study the Neutral Red uptake (NRU) assay of Borenfreund and Puemer (Borenfreund, E, Puemer J A. Toxicity determined in vitro by morphological alterations and Neutral Red absorption. Toxicology Lett. 1985; 24:119-124) modified according to INVITTOX protocol No 78 (ERGATT/FRAME data bank of in vitro techniques in toxicology. INVITTOX PROTOCOL No 78. 3T3 NRU Phototoxicity Assay. March 1994) has been adapted to examine a possible phototoxic potential of the test item. This assay is based on the active uptake of the Neutral Red dye into the lysosomes of cultured murine fibroblasts. Because lysosomal membranes are known to be a site of action of many phototoxic compounds, this assay can provide a measure of potential for phototoxic injury.
A murine fibroblasts clone A 31 (ATCC no. CCL 163—passage No. 108) were cultured in 175 cm2 tissue culture grade flasks, containing sDMEM (Dulbecco's Minimal Essential Medium, supplemented with 10% fetal calf serum, 2 mM L-glutamine, 100 units/ml Penicillin and 100 μg/ml streptomycin) at 37° C. in a humidified atmosphere of 6% C02. Before cells approach confluence they were removed from flasks by trypsinisation. Prior to use in an assay, the cells were transferred to 96-well microtiter plates at a concentration of 1×10^4 cells/well in 100 μl volumes of sDMEM and allowed to attach for 24 h.
For incubation with murine fibroblasts, the test item was diluted in PBS/3% DMSO (detailed concentrations see in results).
Culture medium (Dulbecco's Modified Eagle Medium (DMEM), GlutaMAX (Gibco Ref 21885-025), 10% Fetal Bovine Serum (FBS) (Gibco Ref 10270-106), 100 IU/ml Penicillin and 100 μg/ml Streptomycin (Gibco Ref 15140-122)) was removed from the wells and murine fibroblasts were washed with PBS. Afterwards 100 μL of PBS/3% DMSO containing the test item was added and target cells were incubated for 1 h at 37° C. with 6% CO2.
For each test item the microtiter plates were prepared according to Table 4. “UVA plates” were exposed to approx. 5 J/cm2 UVA light, the “Dark plates” were kept in the dark and served as cytotoxicity control. Plates with chlorpromazine hydrochloride served as positive control. UV flux was measured with a UV-meter (Dr. Gröbel RM21).
Following UV irradiation, the test item was removed from the wells (one washing step with PBS) and replaced with sDMEM. Target cells were then incubated overnight at 37° C. in 6% CO2.
Each plate contained wells with cells and solvent but without test item which were either not incubated with Neutral Red solution (0% standard—S1) or were stained with Neutral Red (100% standard—S2) for calculation of the standard cell viability curve. Wells labeled with U01-U08 contained the different test item concentrations.
After the incubation the wells to be assayed were filled with 100 μL of the sDMEM containing Neutral Red. […]

[2] = Human microsomal stability assay; format: in vitro ADME; conditions: human liver microsomes 0.5 mg/mL, 37° C., pH 7.4, NADPH regenerating system, 0-30 minutes
Description: Human Microsomal Stability Assay
Human liver microsomes (Cat. NO.: 452117, Corning, USA) were preincubated with test compound for 10 minutes at 37° C. in 100 mM potassium phosphate buffer, pH 7.4. The reactions were initiated by adding NADPH regenerating system. The final incubation mixtures contained […] test compound, 0.5 mg/mL liver microsomal protein, 1 mM MgCl2, 1 mM NADP, 1 unit/mL isocitric dehydrogenase and 6 mM isocitric acid in 100 mM potassium phosphate buffer, pH 7.4. After incubation times of 0, 3, 6, 9, 15 and 30 minutes at 37° C., 300 μL of cold ACN (including internal standard) was added to 100 μL incubation mixture to terminate the reaction. Following precipitation and centrifugation, 100 μL supernatant will be taken out and added 300 uL water. The amount of compound remaining in the samples was determined by LC-MS/MS. Controls of no NADPH regenerating system at zero and 30 minutes were also prepared and analyzed. The results were categorized as: low (<7.0 mLJmin/kg), medium (7.0-16.2 mL/min/kg) and high (16.2-23.2 mLJmin/kg).

Structure (SMILES) | Phototoxicity factor [1] | IC50 [1] | CL (h) [2]
C[C@@H]1CN(c2ccc(C#N)c3ncccc23)C[C@@H]2c3ccc(N4CC5CNCC(C4)O5)cc3CN12 [Example 14, 5-[(4R,10bS)-4-methyl-8-(9-oxa-3,7-diazabicyclo[3.3.1]nonan-3-yl)-3,4,6,10b-tetrahydro-1H-pyrazino[2,1-a]isoindol-2-yl]quinoline-8-carbonitrile] | 1.00 | > 100 µg/mL | 6.2 mL/min/kg
C[C@@H]1CN(c2ccc(C#N)c3ncccc23)C[C@@H]2c3ccc(N[C@H]4CNC[C@H]4F)cc3CN12 [Example 30, 5-[(4R,10bS)-8-[[(3S,4R)-4-fluoropyrrolidin-3-yl]amino]-4-methyl-3,4,6,10b-tetrahydro-1H-pyrazino[2,1-a]isoindol-2-yl]quinoline-8-carbonitrile] | >1.9 | 54.6 µg/mL (≈ 123 µM) | 8.8 mL/min/kg
C[C@@H]1CN(c2ccc(C#N)c3ncccc23)C[C@@H]2c3ccc(N4CC(C)(N)C4)cc3CN12 [Example 39, 5-[(4R,10bS)-8-(3-amino-3-methyl-azetidin-1-yl)-4-methyl-3,4,6,10b-tetrahydro-1H-pyrazino[2,1-a]isoindol-2-yl]quinoline-8-carbonitrile] | 1.00 | > 100 µg/mL | 6.2 mL/min/kg
C[C@@H]1CN(c2ccc(C#N)c3ncccc23)C[C@@H]2c3ccc(N4CCNC[C@H](O)C4)cc3CN12 [Example 53A, 5-[(4R,10bS)-8-[(6S)-6-hydroxy-1,4-diazepan-1-yl]-4-methyl-3,4,6,10b-tetrahydro-1H-pyrazino[2,1-a]isoindol-2-yl]quinoline-8-carbonitrile] |  |  | 8.6 mL/min/kg
C[C@@H]1CN(c2ccc(C#N)c3ncccc23)C[C@@H]2c3ccc(N4CCOCC(N)C4)cc3CN12 (stereo partly drawn) [Example 54, 5-[(4R,10bS)-8-(6-amino-1,4-oxazepan-4-yl)-4-methyl-3,4,6,10b-tetrahydro-1H-pyrazino[2,1-a]isoindol-2-yl]quinoline-8-carbonitrile] |  |  | 8.9 mL/min/kg
C[C@@H]1CN(c2ccc(C#N)c3ncccc23)C[C@@H]2c3ccc(N4CCOC[C@H](N)C4)cc3CN12 [Example 54A, 5-[(4R,10bS)-8-[(6R)-6-amino-1,4-oxazepan-4-yl]-4-methyl-3,4,6,10b-tetrahydro-1H-pyrazino[2,1-a]isoindol-2-yl]quinoline-8-carbonitrile] |  |  | 7.5 mL/min/kg
C[C@@H]1CN(c2ccc(C#N)c3ncccc23)C[C@@H]2c3ccc(N4CCOC[C@@H](N)C4)cc3CN12 [Example 54B, 5-[(4R,10bS)-8-[(6S)-6-amino-1,4-oxazepan-4-yl]-4-methyl-3,4,6,10b-tetrahydro-1H-pyrazino[2,1-a]isoindol-2-yl]quinoline-8-carbonitrile] | 1.00 | > 100 µg/mL | 7.0 mL/min/kg
[2H]c1ccc2c(N3C[C@@H](C)N4Cc5cc(N6CC(C)(N)C6)ccc5[C@H]4C3)ccc(C#N)c2n1 [Example 92, 5-[(4R,10bS)-8-(3-amino-3-methyl-azetidin-1-yl)-4-methyl-3,4,6,10b-tetrahydro-1H-pyrazino[2,1-a]isoindol-2-yl]-2-deuterio-quinoline-8-carbonitrile] |  |  | 6.4 mL/min/kg
[2H]c1ccc2c(N3C[C@@H](C)N4Cc5cc(N6CC7CNCC(C6)O7)ccc5[C@H]4C3)ccc(C#N)c2n1 [Example 93, 5-[(4R,10bS)-4-methyl-8-(9-oxa-3,7-diazabicyclo[3.3.1]nonan-3-yl)-3,4,6,10b-tetrahydro-1H-pyrazino[2,1-a]isoindol-2-yl]-2-deuterio-quinoline-8-carbonitrile] |  |  | 8.4 mL/min/kg
CO[C@@H]1CN(c2ccc3c(c2)CN2[C@H](C)CN(c4ccc(C#N)n5nccc45)C[C@H]32)C[C@H]1N [Example 94, 4-[(4R,10bS)-8-[(3R,4R)-3-amino-4-methoxy-pyrrolidin-1-yl]-4-methyl-3,4,6,10b-tetrahydro-1H-pyrazino[2,1-a]isoindol-2-yl]pyrazolo[1,5-a]pyridine-7-carbonitrile] | 1.99 | 39 µg/mL (≈ 87.9 µM) | 
C[C@@H]1CN(c2ccc(C#N)n3nccc23)C[C@@H]2c3ccc(N4CC[C@@H](N)C4)cc3CN12 [Example 96, 4-[(4R,10bS)-8-[(3R)-3-aminopyrrolidin-1-yl]-4-methyl-3,4,6,10b-tetrahydro-1H-pyrazino[2,1-a]isoindol-2-yl]pyrazolo[1,5-a]pyridine-7-carbonitrile] |  |  | 6.2 mL/min/kg
CO[C@@H]1CN(c2ccc3c(c2)CN2[C@H](C)CN(c4ccc(C#N)n5nccc45)C[C@H]32)CC[C@H]1N [Example 104, 4-[(4R,10bS)-8-[(3R,4R)-4-amino-3-methoxy-1-piperidyl]-4-methyl-3,4,6,10b-tetrahydro-1H-pyrazino[2,1-a]isoindol-2-yl]pyrazolo[1,5-a]pyridine-7-carbonitrile] |  |  | 7.0 mL/min/kg
C[C@@H]1CN(c2ccc(C#N)n3ncc(F)c23)C[C@@H]2c3ccc(N4C[C@H](N)[C@@](C)(O)C4)cc3CN12 [Example 112, 4-[(4R,10bS)-8-[(3S,4S)-4-amino-3-hydroxy-3-methyl-pyrrolidin-1-yl]-4-methyl-3,4,6,10b-tetrahydro-1H-pyrazino[2,1-a]isoindol-2-yl]-3-fluoro-pyrazolo[1,5-a]pyridine-7-carbonitrile] |  |  | 8.6 mL/min/kg
